# Data taken from patent US4906659A, “Antibiotic tan-749, its derivatives, production and use thereof” (Takeda Chemical Industries, Ltd., priority 1985, dated 1990).
# Where a name gives a salt, the structure may show the parent alone.
# Key:
# [1] = tested on: Staphylococcus aureus 308A-1; assay: Therapeutic effect on infectious disease in mice (Table G); type: in vivo; conditions: bacteria infected intraperitoneally
# [2] = tested on: Proteus morganii IFO 3168; assay: Antibacterial spectrum, minimal inhibitory concentration (Table D); type: cell-based; conditions: Morganella morganii, IFO3168; dihydrochloride; Bacto-Antibiotic Medium 3 agar; inoculum a loopful of approx. 10^6 CFU/ml
# Experimental: (§1) Tables D and E show the antibacterial spectra of TAN-749A, B, C and D (dihydrochlorides) against various microorganisms.
# (§2) Bacto-Antibiotic Medium 3
# (§3) Distilled water 1,000 ml
# (§4) Inoculum size a loopful of approx.
# [3] = tested on: Acinetobacter calcoaceticus IFO 13006; assay: as above; type: cell-based; conditions: IFO13006, dihydrochloride, Bacto-Antibiotic Medium 3 agar, inoculum a loopful of approx. 10^6 CFU/ml
# Experimental: as §1, §2, §3, §4
# [4] = tested on: Pseudomonas aeruginosa IFO 3080; assay: as above; type: cell-based; conditions: IFO3080, dihydrochloride, Bacto-Antibiotic Medium 3 agar, inoculum a loopful of approx. 10^6 CFU/ml
# Experimental: as §1, §2, §3, §4
# [5] = tested on: Escherichia coli NIHJ JC2; assay: as above; type: cell-based; conditions: NIHJJC2, dihydrochloride, Bacto-Antibiotic Medium 3 agar, inoculum a loopful of approx. 10^6 CFU/ml
# Experimental: as §1, §2, §3, §4
# [6] = tested on: Staphylococcus aureus FDA 209P; assay: as above; type: cell-based; conditions: FDA209P, dihydrochloride, Bacto-Antibiotic Medium 3 agar, inoculum a loopful of approx. 10^6 CFU/ml
# Experimental: as §1, §2, §3, §4
# [7] = tested on: Proteus vulgaris IFO 3988; assay: as above; type: cell-based; conditions: IFO3988, dihydrochloride, Bacto-Antibiotic Medium 3 agar, inoculum a loopful of approx. 10^6 CFU/ml
# Experimental: as §1, §2, §3, §4
# [8] = tested on: Alcaligenes faecalis IFO 13111; assay: as above; type: cell-based; conditions: IFO13111, dihydrochloride, Bacto-Antibiotic Medium 3 agar, inoculum a loopful of approx. 10^6 CFU/ml
# Experimental: as §1, §2, §3, §4
# [9] = tested on: Klebsiella pneumoniae IFO 3317; assay: as above; type: cell-based; conditions: IFO3317, dihydrochloride, Bacto-Antibiotic Medium 3 agar, inoculum a loopful of approx. 10^6 CFU/ml
# Experimental: as §1, §2, §3, §4
# [10] = tested on: Citrobacter freundii IFO 12681; assay: as above; type: cell-based; conditions: IFO12681, dihydrochloride, Bacto-Antibiotic Medium 3 agar, inoculum a loopful of approx. 10^6 CFU/ml
# Experimental: as §1, §2, §3, §4
# [11] = tested on: Pseudomonas aeruginosa P9; assay: Antibacterial spectrum, minimal inhibitory concentration, agar dilution (Table E); type: cell-based; conditions: dihydrochloride, medium B--TSA (10% horse serum/TSA), inoculum a loopful of 10^8 CFU/ml
# Text: as §1
# (§5) (Note 1) Determined by the agar dilution method. Inoculum size was a
# (§6) loopful of 10^8 CFU/ml.
# (§7) (Note 2) TSA (Tripticase Soy Agar; Baltimore Biological Laboratories,
# (§8) USA), B--TSA; 10% horse serum/TSA
# [12] = tested on: Staphylococcus aureus FDA209P; assay: as above; type: cell-based; conditions: dihydrochloride, medium B--TSA (10% horse serum/TSA), inoculum a loopful of 10^8 CFU/ml
# Text: as §1, §5, §6, §7, §8
# [13] = tested on: Staphylococcus aureus 308A-1; assay: as above; type: cell-based; conditions: 308A1, dihydrochloride, medium TSA, inoculum a loopful of 10^8 CFU/ml
# Text: as §1, §5, §6, §7, §8
# Escherichia coli T7 [14] = assay: as above; type: cell-based; conditions: dihydrochloride, medium TSA, inoculum a loopful of 10^8 CFU/ml
# Text: as §1, §5, §6, §7, §8
# [15] = tested on: Streptococcus pyogenes E-14; assay: as above; type: cell-based; conditions: E14, dihydrochloride, medium B--TSA (10% horse serum/TSA), inoculum a loopful of 10^8 CFU/ml
# Text: as §1, §5, §6, §7, §8
# S. aureus 308A-1 [16] = assay: Antibacterial activity in mice, ED50 (Table 3); type: in vivo; conditions: Staphylococcus aureus, 308A1, sc, S.C.
# Text: The antibacterial activities against gram-positive bacteria (S. aureus […]-1) of some compounds of the invention are as shown in Table 3. | **mice, S.C.,
# S. aureus 308A-1 [17] = assay: Antibacterial activity against gram-positive bacteria, MIC (Table 3); type: cell-based; conditions: Staphylococcus aureus, 308A1; Tripticase Soy Agar; inoculum size 10^8 cfu/ml
# Text: The antibacterial activities against gram-positive bacteria (S. aureus 308A-1) of some compounds of the invention are as shown in Table 3.
# *Medium: Tripticase Soy Agar Inoculum size: 10^8 cfu/ml
# Solubility = type: physicochemical
# pKa' value = type: physicochemical; conditions: dihydrochloride
# Escherichia coli 0-111 = assay: Therapeutic effect on infectious disease in mice (Table G); type: in vivo; conditions: Escherichia coli, 0111, sc, dihydrochloride, bacteria infected intraperitoneally, subcutaneous administration
# [18] = tested on: Pseudomonas aeruginosa P-9; assay: as above; type: in vivo; conditions: P9, sc, dihydrochloride, bacteria infected intraperitoneally, subcutaneous administration
# [19] = Preliminary acute toxicities in mice (Table H); conditions: mouse, in vivo, dihydrochloride
# Escherichia coli T7 [20] = assay: Therapeutic effect on infectious disease in mice (Table G); type: in vivo; conditions: T7, sc, dihydrochloride, bacteria infected intraperitoneally, subcutaneous administration
# [21] = 308A1, sc, dihydrochloride, subcutaneous administration
compound,measurement,setting,value
C/C=C/C=C/C(=O)NC(C)C(O)CC(N)CC(=O)NCCC(=N)N (stereo not shown) [IV],ED50,[1]; [21],< 6.25 mg/kg
same,MIC,[2],> 100 µg/mL
same,MIC,[3],> 100 µg/mL
same,MIC,[4],100 µg/mL
same,MIC,[5],> 100 µg/mL
same,MIC,[6],50 µg/mL
same,MIC,[7],100 µg/mL
same,MIC,[8],6.25 µg/mL
same,MIC,[9],> 100 µg/mL
same,MIC,[10],> 100 µg/mL
same,MIC,[11],100 µg/mL
same,MIC,[12],25 µg/mL
same,MIC,[13],25 µg/mL
same,MIC,Escherichia coli T7 [14],50 µg/mL
same,MIC,[15],25 µg/mL
C/C=C\C=C\C(=O)NC[C@H](O)C[C@@H](N)CC(=O)NCC(C)C(=N)N (stereo partly shown) [124b],ED50,S. aureus 308A-1 [16],7.2 mg/kg
same,MIC,S. aureus 308A-1 [17],> 100 µg/mL
C/C=C\C=C\C(=O)NC[C@H](O)C[C@H](CC(=O)NCCC(=N)N)NC(=O)CN [133b],ED50,S. aureus 308A-1 [16],8.41 mg/kg
same,MIC,S. aureus 308A-1 [17],> 100 µg/mL
C/C=C/C=C/C(=O)NC(C)C(O)CC(N)CC(=O)NCCC(=N)N (stereo not shown) [TAN-749D dihydrochloride],Solubility (by reference to TAN-749A dihydrochloride),Solubility,Same with TAN-749A dihydrochloride
C/C=C\C=C\C(=O)NC[C@H](O)C[C@H](CC(=O)NCCC(=N)N)NC(=O)[C@H](C)N [136b],ED50,S. aureus 308A-1 [16],8.16 mg/kg
same,MIC,S. aureus 308A-1 [17],> 100 µg/mL
C/C=C/C=C/C(=O)NCC(O)CC(N)CC(=O)NCCC(=N)N (stereo not shown) [TAN-749C dihydrochloride],Solubility (by reference to TAN-749A dihydrochloride),Solubility,Same with TAN-749A dihydrochloride
C/C=C\C=C\C(=O)NCC(O)CC(CC(=O)NCCC(=N)N)NC (stereo not shown) [compound 80],MIC,S. aureus 308A-1 [17],> 100 µg/mL
C/C=C\C=C\C(=O)NCC(O)CC(N)CC(=O)NCCC(=N)N (stereo not shown) [TAN-749A dihydrochloride],pKa,pKa' value,8
same,Solubility: Soluble,Solubility; dihydrochloride,"Water, Dimethyl sulfoxide, Methanol"
same,Solubility: Sparingly soluble,Solubility; dihydrochloride,"Acetone, Ethyl acetate, Diethyl ether"
C/C=C\C=C\C(=O)NC[C@H](O)C[C@@H](N)CC(=O)NCCC(=N)NC [125b],ED50,S. aureus 308A-1 [16],19.2 mg/kg
same,MIC,S. aureus 308A-1 [17],> 100 µg/mL
C/C=C\C=C\C(=O)NC(C)C(O)CC(N)CC(=O)NCCC(=N)N (stereo not shown) [II],ED50,Escherichia coli 0-111,27.3 mg/kg
same,ED50,[18],61.4 mg/kg
same,ED50,"[1]; 308A1, dihydrochloride, oral administration",16.2 mg/kg
same,ED50,[1]; [21],0.351 mg/kg
same,LD50,"[19]; sc, subcutaneous",400 to 800 mg/kg
same,MIC,[2],100 µg/mL
same,MIC,[3],50 µg/mL
same,MIC,[4],50 µg/mL
same,MIC,[5],> 100 µg/mL
same,MIC,[6],12.5 µg/mL
same,MIC,[7],25 µg/mL
same,MIC,[8],6.25 µg/mL
same,MIC,[9],100 µg/mL
same,MIC,[10],≥ 100 µg/mL
same,MIC,[11],50 µg/mL
same,MIC,[12],3.13 µg/mL
same,MIC,[13],3.13 µg/mL
same,MIC,Escherichia coli T7 [14],12.5 µg/mL
same,MIC,[15],6.25 µg/mL
C/C=C\C=C\C(=O)NCC(O)CC(N)CC(=O)NCCC(=N)N (stereo not shown) [I],ED50,Escherichia coli 0-111,67.2 mg/kg
same,ED50,[1]; [21],1.31 mg/kg
same,LD50,[19]; oral,2000 to 4000 mg/kg
same,LD50,"[19]; sc, subcutaneous",~500 mg/kg
same,ED50,Escherichia coli T7 [20],50.8 mg/kg
same,MIC,[2],> 100 µg/mL
same,MIC,[3],25 µg/mL
same,MIC,[5],> 100 µg/mL
same,MIC,[6],50 µg/mL
same,MIC,[7],100 µg/mL
same,MIC,[8],3.13 µg/mL
same,MIC,[9],> 100 µg/mL
same,MIC,[10],≥ 100 µg/mL
same,MIC,[11],100 µg/mL
same,MIC,[12],12.5 µg/mL
same,MIC,[13],12.5 µg/mL
same,MIC,Escherichia coli T7 [14],50 µg/mL
same,MIC,[15],3.13 µg/mL
C=C/C=C(\C)C(=O)NC[C@H](O)C[C@@H](N)CC(=O)NCCC(=N)N [112b],ED50,S. aureus 308A-1 [16],6.25 mg/kg
same,MIC,S. aureus 308A-1 [17],> 100 µg/mL
C/C=C/C=C/C(=O)NCC(O)CC(N)CC(=O)NCCC(=N)N (stereo not shown) [III],ED50,Escherichia coli 0-111,50 mg/kg
same,ED50,[1]; [21],12.5 mg/kg
same,MIC,[2],> 100 µg/mL
same,MIC,[3],> 100 µg/mL
same,MIC,[4],50 µg/mL
same,MIC,[5],> 100 µg/mL
same,MIC,[6],> 100 µg/mL
same,MIC,[7],100 µg/mL
same,MIC,[8],12.5 µg/mL
same,MIC,[9],> 100 µg/mL
same,MIC,[10],> 100 µg/mL
same,MIC,[11],100 µg/mL
same,MIC,[12],> 100 µg/mL
same,MIC,[13],> 100 µg/mL
same,MIC,Escherichia coli T7 [14],> 100 µg/mL
same,MIC,[15],100 µg/mL
CC=CC=C(C)C(=O)NCC(O)CC(N)CC(=O)NCCC(=N)N (stereo not shown) [44b],ED50,S. aureus 308A-1 [16],21.5 mg/kg
same,MIC,S. aureus 308A-1 [17],100 µg/mL
C/C=C\C=C\C(=O)NC[C@H](O)C[C@H](CC(=O)NCCC(=N)N)NC(=O)C(N)CO (stereo partly shown) [134b],ED50,S. aureus 308A-1 [16],7.79 mg/kg
same,MIC,S. aureus 308A-1 [17],> 100 µg/mL
C/C=C\C=C\C(=O)NCC(O)CC(CC(=O)NCCC(=N)N)NCC (stereo not shown) [compound 82],ED50,S. aureus 308A-1 [16],25 mg/kg
same,MIC,S. aureus 308A-1 [17],> 100 µg/mL
"CN(CC(=O)O)NC(=O)C[C@H](N)C[C@@H](O)CN [Negamycin, 2-(3R,5R)-3,6-diamino-5-hydroxyhexanoyl-1-methylhydrazinoacetic acid, reference compound]",MIC,S. aureus 308A-1 [17],> 100 µg/mL
N=C(N)CCNC(=O)C[C@H](N)C[C@@H](O)CNC(=O)/C=C/C=C\Cl [120b],ED50,S. aureus 308A-1 [16],8.61 mg/kg
same,MIC,S. aureus 308A-1 [17],> 100 µg/mL
C/C=C\C=C(/C)C(=O)NC[C@H](O)C[C@@H](N)CC(=O)NCCC(=N)N [101b],ED50,S. aureus 308A-1 [16],7.02 mg/kg
same,MIC,S. aureus 308A-1 [17],> 100 µg/mL
C/C=C\C=C\C(=O)NC(C)C(O)CC(N)CC(=O)NCCC(=N)N (stereo not shown) [TAN-749B dihydrochloride],pKa,pKa' value,8.05
same,Solubility (by reference to TAN-749A dihydrochloride),Solubility,Same with TAN-749A dihydrochloride
